Consider two compounds from patent publication US20100035877A1, “METHODS AND COMPOSITIONS FOR TREATING PATHOLOGIES ASSOCIATED WITH BDNF SIGNALING” (priority 2006, published 2010).

Molecules are shown by their SMILES.

The conditions of series [1]: in vivo; cited from earlier work.
In series [2] the test system is BDNF protein in nodose ganglion (NG). Description: BDNF ELISA of intact nodose ganglion after in vivo CX546 treatment. Also noted: species or system mouse. The conditions noted are these: CX546 40 mg/kg i.p. b.i.d. 3 days; for NG BDNF content: mean±SEM, n=6. As to the method: (§1) Beginning on P25, wildtype and Mecp2 null littermates were acclimatized to the injection protocol to reduce stress, first by handling for 10 min./day for 3 days, followed by saline injections (0.9% NaCl, i.p., b.i.d.) at 8:00 AM and 8:00 PM, for an additional 3 days. Subsequently, mice were assigned either to drug treatment (CX546, 40 mg/kg in 16.5% 2-hydroxypropyl-β-cyclodextrin, i.p., b.i.d.) or vehicle injections (cyclodextrin alone). On the day of their last injection, mice were trained in the plethysmograph recording chamber for one hour. Eighteen to 24 hours after their last injection, on P35, mice were returned to the chamber for recording of respiratory activity.
(§2) Breathing was recorded in unrestrained mice using a whole-body flow plethysmograph (Buxco II; Buxco Research Systems, Wilmington, N.C.) in which a constant bias flow supply connected to the animal recording chamber ensured continuous inflow of fresh air (1 L/min.). Ambient temperature was maintained between 23 and 25° C. Breathing traces were analyzed using Biosystem XA software (Buxco Research Systems). After the recording sessions, mice were euthanized with CO2 and tissue processed for BDNF immunoassay.
BDNF protein levels in intact NG or in cultured NG cells were measured by ELISA using the BDNF Emax Immunoassay System (Promega). Protein extracts from one intact NG or from an equivalent number of cultured cells were used for ELISA.
(§3) Wildtype and Mecp2 null littermates were treated for 3 days with CX546 (40 mg/kg in cyclodextrin, i.p., b.i.d.) or vehicle. Respiratory function was monitored by whole-body plethysmography 18-24 hours after the last injection, as described in Methods. At the end of the recording session the mice were sacrificed and the NG removed for BDNF ELISA. […] Treatment of wildtype mice with CX546 had no effect on NO BDNF content.
In general terms: An ELISA detects its analyte on a solid surface through an enzyme-linked reagent.

In series [3] the test system is wildtype and Mecp2 null mice. Briefly: Whole-body plethysmography of respiratory function after CX546 treatment. It counts as in vivo, mouse. The conditions noted are these: for effect on breathing frequency and minute volume/weight: CX546 40 mg/kg b.i.d. 3 days; for breathing frequency / Coefficient of variation of breathing frequency / minute volume/weight / tidal volume/weight: CX546 40 mg/kg i.p. b.i.d. 3 days; for breathing frequency: 18-24 h after last injection. The procedure: as §1, §2, §3

Turning to `O=C(c1ccc2c(c1)OCCO2)N1CCCCC1` [CX546, 1-(1,4-benzodioxan-6-ylcarbonyl)piperidine], the half-life entry in series [1] is given as “less than an hour”. In series [2] (P35 Mecp2 null mice), the “increase in BDNF protein content compared to vehicle-treated mutants” value is recorded as 42% and the “NG BDNF content” value is 114±4 pg BDNF/mL. In addition, the “NG BDNF content” value in series [2] (P35 wildtype mice) stood at 167±5 pg BDNF/mL. The “effect on NG BDNF content” value in series [2] (wildtype mice) is reported as “no effect”. Also, the “effect on breathing frequency and minute volume/weight” value in series [3] (P35 Mecp2 null mice) was “completely restores wildtype frequency and minute volume/weight”. For the same compound, in series [3] (P35 Mecp2 null mice, n=9), the breathing frequency was 176±8 breath/min, the “Coefficient of variation of breathing frequency” value was 23.4±1.5%, the minute volume/weight was found to be 1.13 ± 0.07 mL/min/g and the tidal volume/weight came out at 6.5 ± 0.3 µL/g. For the same compound, in series [3] (P35 wildtype mice, n=7), the breathing frequency is 177±6 breath/min, the “Coefficient of variation of breathing frequency” value came out at 18.5±1.2%, the minute volume/weight came out at 1.14 ± 0.09 mL/min/g and the tidal volume/weight stood at 6.4 ± 0.5 µL/g. Moreover, the “effect on breathing frequency and minute volume/weight” value in series [3] (wildtype mice) is on record as “no effect”.
For `[Cl-].[K+]` [KCI, potassium chloride], the “BDNF protein compared to unstimulated controls” value in the series with NG neurons is “significant increase”.
